Source: patent US20120034288A1, “COMPOSITIONS AND METHODS FOR ENHANCED ATTRACTION OF NOCTUID MOTHS” (priority 2010, published 2012)

How the values were obtained:
Heliothis zea [1] = assay: Heliothis zea Test 1: field trap capture, Hercon pheromone lure with/without enhancer; assay type: in vivo; details: for percent increase in Heliothis zea captures: test 1, enhancer added to pheromone lure
Experimental: 12 traps were set in Yazoo City and 10 in Monroe County, Miss. From mid June through mid September trans-2, cis-6-nonadienal, a compound reported from the volatiles of corn and soybean plants was tested. Both treatments used a commercial Heliothis zea pheromone dispenser produced by Hercon. The standard was this lure only, while the enhanced traps also contained a dispenser produced in-house that contained the enhancer.

Heliothis zea [2] = assay: Heliothis zea Test 2: field trap capture with added enhancer; assay type: in vivo; details: Arkansas, enhancer added to pheromone lure
From the text: The percent increase in Heliothis zea captures with the addition of the soybean volatile trans-2,cis-6-nonadienal was 44%, 25%, and 54% respectively for Mississippi and Arkansas in test 1 and in Arkansas in test 2.

## CC/C=C\CC/C=C/C=O [trans-2,cis-6-nonadienal, trans-2, cis-6-nonadienal]
Heliothis zea [1]; Arkansas
  percent increase in Heliothis zea captures: 25%
Heliothis zea [1]; Mississippi
  percent increase in Heliothis zea captures: 44%
Heliothis zea [1]; statement in words
  function as an enhancer for attracting H. zea: functioned as an enhancer
Heliothis zea [2]
  percent increase in Heliothis zea captures: 54%
